# Reference: patent US20220143148A1, “COMPOSITIONS AND METHODS FOR MODULATING CGRP SIGNALING TO REGULATE INTESTINAL INNATE LYMPHOID CELLS” (The Broad Institute, Inc., priority 2019, published 2022)
# Key:
# lung ILC2s = details: co-stimulated with IL-33; cited from earlier work
# intestinal KLRG1+ ILC2s [1] = experiment: Bulk ATAC-seq of intestinal KLRG1+ ILC2s stimulated in vitro; assay type: cell-based, mouse; details: α-CGRP stimulation alone
# Protocol: ILC2 culture. Sort-purified intestinal KLRG1^+ ILC2s were incubated in RPMI supplemented with 10% FCS, 10 mM Hepes, 1 mM sodium pyruvate, 10% FBS, 80 μm 2-mercaptoethanol, 2 mM glutamine, 100 U/ml penicillin, […] streptomycin, 100 ng/ml IL-2 and 100 ng/ml IL-7 in 96-well round bottom plate at 37° C. and 5% CO2. If indicated, the culture was supplemented with 100 ng/ml IL-25. For the in vitro proliferation assay, cells from different mice were pooled and labeled with CellTrace Violet, and then cultured at 1,000-1,500 cells per well with 10 μg/ml α-CGRP for 60 hours. When indicated, 10 μM forskolin or 1 μM SQ 22, 536 in DMSO was supplied and cells were cultured for 40 hours. […]
# Bulk ATAC-seq. […] The library was amplified for 11 cycles, purified with Zymo DNA clean (Zymo Research), and sequenced on an Illumina Next-seq platform using 75 cycle Nextseq 500 high output V2 kit (Read 1: 38 cycles, Index 1: 8 cycles, Index 2: 8 cycles, Read 2: 38 cycles).
# The reads were trimmed and aligned to the mouse reference genome (mm9) with Bowtie2 aligner (Langmead and Salzberg, 2012) using the option-X2000. Then, Applicants discarded reads with alignment quality<Q30, improperly paired, mapped to the unmapped contigs, chrY, and mitochondria. […] Peak summits were extended by ±250 bp, and fragment counts in peaks were calculated using chromVAR (Schep et al., 2017) (version: 1.1.1). […]
# intestinal KLRG1+ ILC2s [2] = experiment: Bulk RNA-seq of intestinal KLRG1+ ILC2s stimulated in vitro; assay type: cell-based, mouse
# Text: To determine if α-CGRP can directly trigger signaling in ILC2s and impact their transcriptional states under inflammatory conditions, Applicants performed bulk RNA-seq of KLRG1^+ ILC2s isolated from the small intestine and stimulated in vitro with IL-25 alone or together with α-CGRP. […] Thus, α-CGRP inhibits IL-25-induced proliferation and activation of intestinal KLRG1+ILC2s.
# The presence at homeostasis of α-CGRP receptors on ILC2s and α-CGRP's expression on ChAT^+ intestinal neurons led Applicants to hypothesize that it has an effect on ILC2s during homeostasis. To test this hypothesis, Applicants next measured the expression profiles of intestinal KLRG1^+ ILC2s stimulated in vitro by α-CGRP alone, and identified genes differentially expressed under this signal (FIG. 6D, Methods).
# ILC2 culture. Sort-purified intestinal KLRG1^+ ILC2s were incubated in RPMI supplemented with 10% FCS, 10 mM Hepes, 1 mM sodium pyruvate, 10% FBS, 80 μm 2-mercaptoethanol, 2 mM glutamine, 100 U/ml penicillin, […] streptomycin, 100 ng/ml IL-2 and 100 ng/ml IL-7 in 96-well round bottom plate at 37° C. and 5% CO2. If indicated, the culture was supplemented with 100 ng/ml IL-25. For the in vitro proliferation assay, cells from different mice were pooled and labeled with CellTrace Violet, and then cultured at 1,000-1,500 cells per well with 10 μg/ml α-CGRP for 60 hours. When indicated, 10 μM forskolin or 1 μM SQ 22, 536 in DMSO was supplied and cells were cultured for 40 hours. For bulk RNA-seq, cells from individual mice were stimulated at 200 cells per well with 0.4 μg/ml α-CGRP for 3 hours. For bulk ATAC-seq, cells were stimulated with 0.4 μg/ml α-CGRP for 2 hours.
# Bulk RNA-seq. 200 ILC2s from each condition were lysed in 10 ul TCL buffer plus 0.5% 2-Mercaptoethanol. Libraries were processed with SMART-Seq2 (Picelli et al., 2013) with at least three replicates per condition, and paired-end sequenced (75 bp×2) with a […] Nextseq 500 high output V2 kit.
# Reads were aligned to the mouse reference genome (NCBI 38, mm10) using Bowtie (Langmead et al., 2009) with default parameters, and expression abundances were estimated using RSEM software (Li and Dewey, 2011). The differential gene expression analysis was performed with edgeR (Robinson et al., 2010) with default parameters.
substance,measurement,setting,value
"α-CGRP: neuropeptide alpha-calcitonin gene-related peptide, encoded by exon 5 of Calca; administered as peptide",IL-5 expression in lung ILC2s,lung ILC2s,increases
same,regions of increased chromatin accessibility,intestinal KLRG1+ ILC2s [1],enriched for gene loci involved in the adenylate cyclase pathway
same,Il5 expression,intestinal KLRG1+ ILC2s [2]; IL-25 together with α-CGRP in vitro,further induced
same,IL-25-induced activation signature,"intestinal KLRG1+ ILC2s [2]; IL-25 together with α-CGRP in vitro, adjusted P<0.001, t-test",significantly suppressed
same,"expression of adenylate cyclase-mediated GPCR signaling genes (Adrb2, Adora2a, Pde4b, Akap12) and cAMP response genes (Areg, Crem, Il5)",intestinal KLRG1+ ILC2s [2]; α-CGRP alone in vitro,induced expression
same,"expression of cell cycle arrest genes (Cdkn1a, Gadd45a, Akap12) and negative regulators of ILC2 expansion (Adrb2, Pdcd1)",intestinal KLRG1+ ILC2s [2]; α-CGRP alone in vitro,induced expression
